Tests used:
Type in all cases: in vivo
rice = experiment: Crop safety study in greenhouse; conditions: 7.5-37.5 g a.i./hm^2; pre-emergence and post-emergence application
Description: (§1) Seeds of soybean, cotton, maize, wheat and rice were sown in nutrition soil in paper pot (9 cm diameter), covered with soil in 1 cm and grown in the greenhouse under good growth conditions (temperature, atmospheric humidity, water supply). The compounds of the present invention as emulsifiable concentrate, were applied in pre-emergence and post-emergence treatment by track sprayer (Engineer Research Ltd., pressure 1.95 kg/cm^2, volume 500 L/hm^2, track speed 1.48 km/h). Pre-emergence treatment was conducted after seeding 24 hours and post-emergence treatment was done when the respective weeds reached predetermined leaf stage (soybean and cotton at 2- to 4-leaf stage and maize, wheat and rice at 3-leaf stage), the state of growth of the respective crops were visually observed to determine the safety in accordance with the following evaluation standard.
(§2) Safety rating scale (%): 0 means no damage to crops; 100 means to kill crops completely.

maize = experiment: Crop safety study in greenhouse; conditions: 7.5-37.5 g a.i./hm^2; pre-emergence and post-emergence application
Description: as §1, §2

wheat = experiment: Crop safety study in greenhouse; conditions: 7.5-37.5 g a.i./hm^2; pre-emergence and post-emergence application
Description: as §1, §2

[1] = system: broad-leaf weeds and grass weeds; experiment: General screening of herbicidal activity in greenhouse; conditions: 1000 g a.i./hm^2;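 also: 0 means no visible effect and 100 means all weeds dead or not emerged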
Procedure, shortened: (§3)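 Monocot and dicot weeds grown in greenhouse pots; emulsifiable concentrate track-sprayed at 500 L/hm² pre-emergence (24 h after seeding) or post-emergence (grasses 2–3-leaf, broad-leaves 2–4-leaf). Growth inhibition scored visually, 0 = no action, 100 = all dead or not emerged.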

[2] = system: Echinochloa crus-galli (L.) Beauv.; experiment: Bioassay of herbicidal activity in greenhouse (further screening)
Procedure, shortened: as §3

Zinnia elegans Jacq. = experiment: as above
Procedure, shortened: as §3

[3] = system: Setaria glauca (L.) Beauv.; experiment: as above
Procedure, shortened: as §3

[4] = system: Abutilon theophrasti Medic.; experiment: as above
Procedure, shortened: as §3

## CC(C)C(=O)OCC1(C)CC(c2cc(-n3c(=O)cc(C(F)(F)F)n(C)c3=O)c(F)cc2Cl)=NO1 (centres unmarked) [Compound 46]
rice
  Crop safety, rice: good safety
maize
  Crop safety, maize: good safety
wheat
  Crop safety, wheat: good safety
[1]
  pre-emergence and post-emergence herbicidal activity against broad-leaf weeds and grass weeds: good
[2]; dose 7.5 g a.i./hm^2
  Growth inhibition rate, Post-emergence treatment, Echinochloa crus-galli (L.) Beauv.: 20%
  Growth inhibition rate, Pre-emergence treatment, Echinochloa crus-galli (L.) Beauv.: 10%
[2]; dose 15 g a.i./hm^2
  Growth inhibition rate, Post-emergence treatment, Echinochloa crus-galli (L.) Beauv.: 25%
  Growth inhibition rate, Pre-emergence treatment, Echinochloa crus-galli (L.) Beauv.: 15%
[2]; dose 37.5 g a.i./hm^2
  Growth inhibition rate, Post-emergence treatment, Echinochloa crus-galli (L.) Beauv.: 30%
  Growth inhibition rate, Pre-emergence treatment, Echinochloa crus-galli (L.) Beauv.: 50%
[2]; dose 150 g a.i./hm^2
  Growth inhibition rate, Post-emergence treatment, Echinochloa crus-galli (L.) Beauv.: 75%
  Growth inhibition rate, Pre-emergence treatment, Echinochloa crus-galli (L.) Beauv.: 95%
[2]; dose 600 g a.i./hm^2
  Growth inhibition rate, Post-emergence treatment, Echinochloa crus-galli (L.) Beauv.: 98%
  Growth inhibition rate, Pre-emergence treatment, Echinochloa crus-galli (L.) Beauv.: 100%
Zinnia elegans Jacq.; dose 7.5 g a.i./hm^2
  Growth inhibition rate, Post-emergence treatment, Zinnia elegans Jacq.: 98%
  Growth inhibition rate, Pre-emergence treatment, Zinnia elegans Jacq.: 40%
Zinnia elegans Jacq.; dose 15 g a.i./hm^2
  Growth inhibition rate, Post-emergence treatment, Zinnia elegans Jacq.: 98%
  Growth inhibition rate, Pre-emergence treatment, Zinnia elegans Jacq.: 45%
Zinnia elegans Jacq.; dose 37.5 g a.i./hm^2
  Growth inhibition rate, Post-emergence treatment, Zinnia elegans Jacq.: 100%
  Growth inhibition rate, Pre-emergence treatment, Zinnia elegans Jacq.: 95%
Zinnia elegans Jacq.; dose 150 g a.i./hm^2
  Growth inhibition rate, Post-emergence treatment, Zinnia elegans Jacq.: 100%
  Growth inhibition rate, Pre-emergence treatment, Zinnia elegans Jacq.: 100%
Zinnia elegans Jacq.; dose 600 g a.i./hm^2
  Growth inhibition rate, Post-emergence treatment, Zinnia elegans Jacq.: 100%
  Growth inhibition rate, Pre-emergence treatment, Zinnia elegans Jacq.: 100%
[3]; dose 7.5 g a.i./hm^2
  Growth inhibition rate, Post-emergence treatment, Setaria glauca (L.) Beauv.: 45%
  Growth inhibition rate, Pre-emergence treatment, Setaria glauca (L.) Beauv.: 75%
[3]; dose 15 g a.i./hm^2
  Growth inhibition rate, Post-emergence treatment, Setaria glauca (L.) Beauv.: 55%
  Growth inhibition rate, Pre-emergence treatment, Setaria glauca (L.) Beauv.: 60%
[3]; dose 37.5 g a.i./hm^2
  Growth inhibition rate, Post-emergence treatment, Setaria glauca (L.) Beauv.: 55%
  Growth inhibition rate, Pre-emergence treatment, Setaria glauca (L.) Beauv.: 95%
[3]; dose 150 g a.i./hm^2
  Growth inhibition rate, Post-emergence treatment, Setaria glauca (L.) Beauv.: 80%
  Growth inhibition rate, Pre-emergence treatment, Setaria glauca (L.) Beauv.: 100%
[3]; dose 600 g a.i./hm^2
  Growth inhibition rate, Post-emergence treatment, Setaria glauca (L.) Beauv.: 100%
  Growth inhibition rate, Pre-emergence treatment, Setaria glauca (L.) Beauv.: 100%
[4]; dose 7.5 g a.i./hm^2
  Growth inhibition rate, Post-emergence treatment, Abutilon theophrasti Medic.: 98%
  Growth inhibition rate, Pre-emergence treatment, Abutilon theophrasti Medic.: 50%
[4]; dose 15 g a.i./hm^2
  Growth inhibition rate, Post-emergence treatment, Abutilon theophrasti Medic.: 100%
  Growth inhibition rate, Pre-emergence treatment, Abutilon theophrasti Medic.: 100%
[4]; dose 37.5 g a.i./hm^2
  Growth inhibition rate, Post-emergence treatment, Abutilon theophrasti Medic.: 100%
  Growth inhibition rate, Pre-emergence treatment, Abutilon theophrasti Medic.: 100%
[4]; dose 150 g a.i./hm^2
  Growth inhibition rate, Post-emergence treatment, Abutilon theophrasti Medic.: 100%
  Growth inhibition rate, Pre-emergence treatment, Abutilon theophrasti Medic.: 100%
[4]; dose 600 g a.i./hm^2
  Growth inhibition rate, Post-emergence treatment, Abutilon theophrasti Medic.: 100%
  Growth inhibition rate, Pre-emergence treatment, Abutilon theophrasti Medic.: 100%

— patent US10550111B2, “Pyrimidine urea compound containing isoxazolines and use thereof” (SHENYANG SINOCHEM AGROCHEMICALS R&D CO., LTD, priority 2014, dated 2020)
